# Measured values from patent publication US10273544B2, “Methods for predicting likelihood of responding to treatment” (Dana-Farber Cancer Institute, Inc., priority 2010, dated 2019).
# What was measured:
# PSA = assay: AR mediated PSA expression by quantitative RT-PCR; type: cell-based
# Method: (§1) Total RNA was isolated from cells using TRIzol reagent (Invitrogen, Carlsbad, Calif.) and then converted to cDNA using High Capacity cDNA Reverse Transcription kit (Applied Biosystems, Foster City, Calif.). The expression levels of SLCO2B1 and GAPDH were measured using a standard TaqMan PCR kit protocol. Experiments were carried out in triplicate for each data point. Real-time PCR primers and probe sets were inventoried products of Applied Biosystem (Assay ID: Hs00200670_m1 and Hs02758991_g1).
# (§2) The expression levels of AR and PSA were measured using a standard TaqMan PCR kit protocol (Hs02576345_m1 and Hs00171172_m1) as described in Example 3.
# SLCO2B1-312Arg = biological target: T1, SLCO2B1-312Arg (Homo sapiens, UniProt O94956); assay: DHEAS uptake assay in LNCaP cells transfected with SLCO2B1-312Arg; settings: read-out: best-fit Km for DHEAS uptake; SLCO2B1-312Arg variant, nonlinear regression
# T1 sequence (O94956 1-709 R312Q): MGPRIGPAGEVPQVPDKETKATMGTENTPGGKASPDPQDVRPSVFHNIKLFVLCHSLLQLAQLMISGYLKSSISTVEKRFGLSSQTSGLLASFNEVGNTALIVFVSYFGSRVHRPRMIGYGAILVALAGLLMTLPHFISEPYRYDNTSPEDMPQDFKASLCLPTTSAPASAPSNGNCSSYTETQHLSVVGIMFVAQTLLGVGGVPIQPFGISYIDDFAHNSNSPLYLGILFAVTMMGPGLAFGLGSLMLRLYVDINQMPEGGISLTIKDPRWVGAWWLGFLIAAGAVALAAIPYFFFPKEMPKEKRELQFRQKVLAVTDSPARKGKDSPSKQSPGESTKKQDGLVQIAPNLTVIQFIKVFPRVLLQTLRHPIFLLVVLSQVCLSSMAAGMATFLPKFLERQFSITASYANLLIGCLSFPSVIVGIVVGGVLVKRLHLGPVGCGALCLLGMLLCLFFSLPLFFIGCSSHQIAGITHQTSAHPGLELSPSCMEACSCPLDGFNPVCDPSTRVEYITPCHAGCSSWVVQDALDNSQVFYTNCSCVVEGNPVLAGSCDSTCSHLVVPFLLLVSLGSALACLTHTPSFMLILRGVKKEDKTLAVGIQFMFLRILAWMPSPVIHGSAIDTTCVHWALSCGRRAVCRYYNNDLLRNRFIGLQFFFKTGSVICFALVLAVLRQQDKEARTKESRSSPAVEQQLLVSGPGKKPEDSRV
# Text: (§3) Two full-length SLCO2B1 cDNAs, SLCO2B1-312Gln (having a G at the position 935) and SLCO2B1-312Arg (having an A at position 935), were cloned into the pCMV6-XL4 vector (OriGene Technologies, Rockville, Md.). The SLCO2B1 935G>A nucleotide exchange was introduced into the cDNA using the QuikChange Site-Directed Mutagenesis kit (Stratagene, La Jolla, Calif.). Primers used for the mutagenesis were 5′-[…]-3′ (SEQ ID NO:1) and 5′-[…]-3′ (SEQ ID NO:2) (underlined sequences encode 312Arg).
# (§4) LNCaP cells were maintained in RPMI 1640 supplemented with 10% fetal bovine serum (FBS). Twenty-four hours before transfection, 2×10^5 cells were seeded in 12-well plates using Phenol-Red free RPMI 1640 supplemented with 10% charcoal-stripped FBS. LNCaP cells were transiently transfected with pCMV-SLCO2B1-312Gln, pCMV-SLCO2B1-312Arg, or pCMV6-XL4 empty vector using Lipofectamine^2000 according to the manufacturer's instructions.
# (§5) The enzyme immunoassay test is based on the competition that occurs between an unlabeled antigen (present in standards, control and samples) and an enzyme-labeled antigen (conjugate) for a limited number of antibody binding sites on the microwell plate. The sensitivity of the kit is 5 ng/ml.
# SLCO2B1-312Gln = biological target: T2, SLCO2B1-312Gln (Homo sapiens, UniProt O94956, R312Q); assay: DHEAS uptake assay in LNCaP cells transfected with SLCO2B1-312Gln; settings: read-out: best-fit Km for DHEAS uptake; SLCO2B1-312Gln variant, nonlinear regression
# T2 sequence (O94956 1-709 R312Q): T1 sequence (O94956 1-709 R312Q)
# Text: as §3, §4, §5
# LNCaP cells [1] = assay: DHEAS uptake assay in LNCaP cells (mock transfected; transfected cells overall); type: cell-based
# Method: The sensitivity of the kit is 5 ng/ml. […] Samples were tested in triplicate.
# LNCaP cells [2] = assay: Cell proliferation, WST-1 assay, LNCaP; type: cell-based; settings: 100 μM DHEAS, wild type LNCaP, androgen-depleted medium
# Method: Cell proliferation was determined using a WST-1 kit (Roche, Indianapolis, Ind.). […] Tetrazolium salt cell proliferation assay then was carried out at different days after transfection, following the manufacturer's instructions.
# AR = AR expression by quantitative RT-PCR; type: cell-based; settings: LNCaP and LAPC4 cell lines
# Method: as §1, §2
smiles,measurement,setting,value
"C[C@]12CC[C@H](OS(=O)(=O)O)CC1=CC[C@@H]1[C@@H]2CC[C@]2(C)C(=O)CC[C@@H]12 [DHEAS, sulfated dehydroepiandrosterone]","up-regulation of PSA expression, SLCO2B1-Gln cells compared to SLCO2B1-Arg cells","PSA; 100 μM DHEAS, LAPC-4 cells",1.48 fold
same,effect of increasing DHEAS level on PSA expression,PSA; wild type LNCaP and LAPC-4 cell lines and cells transfected with SLCO2B1,up-regulated PSA expression
same,Km,SLCO2B1-312Arg,13.7 µM
same,Km,SLCO2B1-312Gln,17.7 µM
same,uptake of DHEAS,"LNCaP cells [1]; 100 μM DHEAS, pCMV6-XL4 vector (mock) transfected LNCaP cells",51.66±7.44 pmol/mg protein
same,incubation time at which DHEAS uptake reached maximum levels,"LNCaP cells [1]; 100 μM DHEAS, various transfected LNCaP cells",1 h
same,DHEAS concentration at which uptake saturation is reached,LNCaP cells [1]; SLCO2B1 variant transfected LNCaP cells,60 to 100 µM
same,increase of growth rate,LNCaP cells [2],about 1.4 fold
same,effect of DHEAS exposure on AR mRNA levels,AR,increased AR mRNA levels
